Reference: paper PMC4763008, “Selective Inhibition of Bakuchicin Isolated from Psoralea corylifolia on CYP1A in Human Liver Microsomes” (Evidence-based Complementary and Alternative Medicine : eCAM, 2016)
“Also recorded” adds a separate entry of the source. Read-outs that look alike come from different tables or passages of the source.

Key:
[1] = biological target: T1, CYP2B6 (Homo sapiens, UniProt P20813); test: CYP inhibition, cocktail of probe substrates in pooled human liver microsomes: bupropion hydroxylation; type: in vitro ADME; settings: pooled HLMs, substrate 50 μM
T1 construct: tissue Corning Gentest BD UltraPool HLM 150; host or cells: pooled human liver microsomes
T1 sequence (P20813 1-491): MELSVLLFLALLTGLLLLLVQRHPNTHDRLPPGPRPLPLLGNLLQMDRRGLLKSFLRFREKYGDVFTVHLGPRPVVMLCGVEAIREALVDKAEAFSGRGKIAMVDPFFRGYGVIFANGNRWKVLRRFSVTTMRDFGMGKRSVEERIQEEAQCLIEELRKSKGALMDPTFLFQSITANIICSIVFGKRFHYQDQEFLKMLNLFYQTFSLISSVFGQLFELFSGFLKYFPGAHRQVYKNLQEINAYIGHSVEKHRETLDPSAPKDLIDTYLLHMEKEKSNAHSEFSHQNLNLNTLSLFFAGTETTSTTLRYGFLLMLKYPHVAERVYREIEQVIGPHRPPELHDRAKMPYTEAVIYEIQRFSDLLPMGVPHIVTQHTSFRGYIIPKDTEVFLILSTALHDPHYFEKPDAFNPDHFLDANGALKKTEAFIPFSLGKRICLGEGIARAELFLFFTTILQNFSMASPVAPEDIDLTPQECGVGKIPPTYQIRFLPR
Method: (§1) All incubations were performed in duplicate, and data are presented as means. Briefly, each reaction was performed with 0.5 mg/mL pooled human liver microsomes in a final incubation volume of 0.1 mL. The incubation medium consisted of 0.1 M potassium phosphate buffer (pH 7.4) containing cocktail of probe substrates and a NADPH-generating system (NGS) of 0.1 M glucose 6-phosphate, 10 mg/mL β-NADPH, and 1.0 U/mL glucose-6-phosphate dehydrogenase. To investigate the IC50 of bakuchicin during CYP1A inhibition, bakuchicin (at final concentrations of 0–25 μM) was incubated without preincubation. In addition, the mixture with bakuchicin was preincubated for 15 min without the probe substrate cocktail in the presence or absence of 1 mM β-NADPH. After the reaction was initiated by adding the NGS for 60 min, incubated samples were terminated by adding 100 μL acetonitrile containing 0.1% formic acid and 2.5 μL of internal standard solution (5 μM reserpine) in methanol. After mixing and centrifuging at 13,000 ×g for 12 min, a 5 μL aliquot was injected onto a C18 column for LC-MS/MS analysis.
(§2) All measurements were performed using LC-MS/MS in multiple reaction monitoring mode. LC-MS/MS was performed using an Accela™ LC system coupled to a TSQ Vantage triple quadrupole mass spectrometer (Thermo Fisher Scientific Inc., USA) equipped with a HESI-II Spray source. Electrospray ionization was performed in positive mode at a spray voltage of 3,500 V (except for the detection of 6-hydroxy chlorzoxazone). Nitrogen was used as a sheath and auxiliary gas at optimum values of 45 and 20 (arbitrary units), respectively. Vaporizer and capillary temperatures were 150 and 300°C, respectively. For LC analysis an Inertsil® ODS-2 (3 μm, 2.1 × 150 mm) column (GL Sciences Inc., Torrance, CA) was used. The mobile phase consisted of acetonitrile (mobile phase A) and water (mobile phase B), both of which contained 0.1% formic acid, at a flow rate of 0.22 mL/min at 30°C.
(§3) All incubations were performed in duplicate, and data are presented as means. […]

[2] = biological target: T2, CYP2C19 (Homo sapiens, UniProt P33261); test: CYP inhibition, cocktail of probe substrates in pooled human liver microsomes: omeprazole 5-hydroxylation; type: in vitro ADME; settings: pooled HLMs, substrate 20 μM
T2 construct: tissue Corning Gentest BD UltraPool HLM 150; host or cells: pooled human liver microsomes
T2 sequence (P33261 whole entry): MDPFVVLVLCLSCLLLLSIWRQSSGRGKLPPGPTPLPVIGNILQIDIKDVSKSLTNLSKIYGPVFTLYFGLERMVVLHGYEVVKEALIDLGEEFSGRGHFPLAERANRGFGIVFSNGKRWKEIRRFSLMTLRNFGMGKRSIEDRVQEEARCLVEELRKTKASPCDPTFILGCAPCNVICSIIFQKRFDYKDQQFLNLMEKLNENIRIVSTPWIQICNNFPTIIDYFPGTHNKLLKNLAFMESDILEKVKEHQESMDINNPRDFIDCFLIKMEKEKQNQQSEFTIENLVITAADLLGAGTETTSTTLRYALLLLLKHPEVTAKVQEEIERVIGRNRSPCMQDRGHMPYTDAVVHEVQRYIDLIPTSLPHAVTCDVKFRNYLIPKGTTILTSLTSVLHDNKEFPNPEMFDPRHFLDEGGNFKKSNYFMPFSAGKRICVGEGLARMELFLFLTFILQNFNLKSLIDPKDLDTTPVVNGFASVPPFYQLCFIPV
Method: as §1, §2, §3

[3] = biological target: T3, CYP2D6 (Homo sapiens, UniProt P10635); test: CYP inhibition, cocktail of probe substrates in pooled human liver microsomes: dextromethorphan O-demethylation; type: in vitro ADME; settings: pooled HLMs, dextromethorphan O-deethylation, substrate 5 μM
T3 construct: each reaction was performed with 0.5 mg/mL pooled human liver microsomes; tissue Corning Gentest BD UltraPool HLM 150; host or cells: pooled human liver microsomes
T3 sequence (P10635 whole entry): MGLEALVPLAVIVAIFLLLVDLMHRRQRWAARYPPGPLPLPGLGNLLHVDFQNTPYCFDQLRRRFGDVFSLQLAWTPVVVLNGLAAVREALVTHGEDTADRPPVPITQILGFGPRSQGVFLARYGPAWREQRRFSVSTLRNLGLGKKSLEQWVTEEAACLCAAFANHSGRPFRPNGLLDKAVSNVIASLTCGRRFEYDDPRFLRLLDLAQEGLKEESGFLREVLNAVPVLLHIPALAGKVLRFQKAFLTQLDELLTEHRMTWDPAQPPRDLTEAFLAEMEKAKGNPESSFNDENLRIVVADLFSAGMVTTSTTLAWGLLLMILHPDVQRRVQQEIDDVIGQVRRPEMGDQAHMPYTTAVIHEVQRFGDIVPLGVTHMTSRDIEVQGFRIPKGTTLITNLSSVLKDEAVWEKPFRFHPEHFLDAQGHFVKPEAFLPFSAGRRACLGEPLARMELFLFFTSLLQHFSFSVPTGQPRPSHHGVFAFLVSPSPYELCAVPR

[4] = biological target: T4, human recombinant cDNA-expressed CYP1A1 (Homo sapiens, UniProt P04798); test: Inhibition of phenacetin O-deethylation by human recombinant cDNA-expressed CYP1A1; type: biochemical
T4 construct: purchased Corning Gentest (Woburn, MA)
T4 sequence (P04798 1-512): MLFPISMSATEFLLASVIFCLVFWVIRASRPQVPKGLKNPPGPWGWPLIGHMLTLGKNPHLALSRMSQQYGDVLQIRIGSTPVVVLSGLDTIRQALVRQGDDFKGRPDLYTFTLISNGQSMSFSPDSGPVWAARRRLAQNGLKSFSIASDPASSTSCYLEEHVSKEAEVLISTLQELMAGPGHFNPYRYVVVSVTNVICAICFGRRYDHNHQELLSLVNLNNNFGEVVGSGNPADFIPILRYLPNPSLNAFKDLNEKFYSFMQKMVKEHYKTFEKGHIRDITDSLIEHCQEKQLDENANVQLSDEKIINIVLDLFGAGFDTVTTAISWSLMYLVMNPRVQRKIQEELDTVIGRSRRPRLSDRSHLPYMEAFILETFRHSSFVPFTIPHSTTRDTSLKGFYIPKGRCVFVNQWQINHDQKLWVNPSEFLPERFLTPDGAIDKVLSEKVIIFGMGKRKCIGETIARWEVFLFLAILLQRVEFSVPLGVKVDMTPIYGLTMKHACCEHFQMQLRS
Method: To confirm the selective inhibition of CYP1A by bakuchicin, 10 pmol of human recombinant cDNA-expressed CYP1A1 and CYP1A2 was incubated with bakuchicin at 0.1–50 μM and NGS for 60 min at 37°C after the addition of 80 μM phenacetin as a selective CYP1A substrate. Those were terminated by adding 100 μL acetonitrile containing 0.1% formic acid and 2.5 μL of internal standard solution (5 μM reserpine) in methanol. After mixing and centrifuging at 13,000 ×g for 12 min, a 5 μL aliquot was injected onto a C18 column for LC-MS/MS analysis. CYP1A1 and CYP1A2 activities were determined by phenacetin O-deethylation. The inhibition patterns of bakuchicin on CYP1A in human recombinant cDNA-expressed CYP1A1 and CYP1A2 were confirmed by Michaelis-Menten and secondary plot.
as §2
All incubations were performed in duplicate, and data are presented as means. IC50 values (the concentration of inhibitor causing a 50% inhibition in enzyme activity) were obtained using percent activity versus log[I] concentration plots. Kinetic parameters were estimated by curve fitting using SigmaPlot (version 12.0, Systat Software, Inc.).

[5] = 15 min preincubation with NADPH, read-out: IC50 With preincubation with NADPH
[6] = 15 min preincubation without NADPH, read-out: IC50 With preincubation Without NADPH
[7] = without preincubation, read-out: IC50 Without preincubation

- IC50 [1, 5]: 11.5 µM
- IC50 [1, 6]: 16.4 µM
- IC50 [1, 7]: 14.2 µM
- IC50 [2, 5]: > 100 µM
- IC50 [2, 6]: > 100 µM
- IC50 [2, 7]: > 100 µM
- IC50 [3, 5]: 15.1 µM
- IC50 [3, 6]: 21.7 µM
- IC50 [3, 7]: 18.2 µM
- IC50 ([4]; recombinant CYP1A1, 80 μM phenacetin, 60 min, read-out: IC50, CYP1A1-catalyzed phenacetin O-deethylase activity): 0.2 µM
- Ki ([4]; recombinant CYP1A1, phenacetin 20, 40, 80 μM, 60 min, read-out: Ki on CYP1A1 (secondary plot)): 0.11 µM
SMILES: O=c1ccc2c(ccc3ccoc32)o1 [Bakuchicin]
- inhibition mode on CYP1A1 ([4]; recombinant CYP1A1, Lineweaver-Burk plot): competitive inhibitor; also recorded: competitive inhibition
